System: chronic fatigue syndrome
Assay: Experiment 1: oral treatment of a subject diagnosed with chronic fatigue syndrome
Assay type: in vivo, human
Conditions: one subject, CFS by CDC criteria; 100 mg capsules orally twice daily for two months
Description: One subject, recently diagnosed with chronic fatigue syndrome by CDC criteria, orally consumed 100 mg capsules of Δ5-androstene-3-acetyl-7,17-dione twice daily for two months. […] As testament to their improvement, they reported to their physician that they had just finished building a 20′×30′ addition to their bam, something, they said, they would not have and could not have done prior to taking Δ5-androstene-3-acetyl-7,17-dione.

CC(=O)O[C@H]1CC[C@@]2(C)C(=CC(=O)[C@@H]3[C@@H]2CC[C@]2(C)C(=O)CC[C@@H]32)C1 [Δ5-androstene-3-acetyl-7,17-dione]
improvement in their symptoms of fatigue (self-reported): 80% | mental alertness (self-reported): felt more mentally alert

Source: US7553829B2, “Treatment of chronic fatigue syndrome and fibromyalgia syndrome” (Humanetics Corporation, priority 2000, dated 2009)
